Where two headings read alike, the source gives them in different places.
What was measured:
[1] = system: human platelet-rich plasma; assay: Platelet aggregation assay (Aggregation-Human PRP/ADP); format: cell-based
Description: Platelet-rich plasma was prepared from healthy human volunteers for use in determining inhibition of platelet aggregation by the compounds.
Platelet-rich plasma was prepared at room temperature by centrifugation of the citrated whole blood at 100 × g for twelve minutes. The platelet rich plasma contained approximately 200-400,000 platelets/μl.
Platelet aggregation was assayed in a 4-channel platelet aggregation profiler (PAP-4, Biodata, Hatboro, Pa.) according to the manufacturers directions. Inhibition of platelet aggregation was studied by adding varying amounts of adenosine diphosphate (ADP) to stirred human platelet-rich plasma. Specifically, the human platelet-rich plasma was incubated with the compound being tested for 1 minute at 37° C. prior to the addition of a variety of aggregating agents most often ADP 5 μM to 20 μM, but also 1 μg/ml collagen, 1 μM U46619 and 0.3 μM platelet activating factor.

GPIIb-IIIa = target: T1, GPIIb-IIIa (Homo sapiens, UniProt P05106+P08514); assay: ELISA IIb-IIIa assay (fibrinogen binding to immobilized purified GPIIb-IIIa); conditions: inhibition of fibrinogen binding to purified GPIIb-IIIa
T1 construct: Purified platelet GPIIb-IIIa receptor was prepared as described by Fitzgerald; from tissue; host or cells: platelets
T1 sequence (P08514 32-887 limits assumed): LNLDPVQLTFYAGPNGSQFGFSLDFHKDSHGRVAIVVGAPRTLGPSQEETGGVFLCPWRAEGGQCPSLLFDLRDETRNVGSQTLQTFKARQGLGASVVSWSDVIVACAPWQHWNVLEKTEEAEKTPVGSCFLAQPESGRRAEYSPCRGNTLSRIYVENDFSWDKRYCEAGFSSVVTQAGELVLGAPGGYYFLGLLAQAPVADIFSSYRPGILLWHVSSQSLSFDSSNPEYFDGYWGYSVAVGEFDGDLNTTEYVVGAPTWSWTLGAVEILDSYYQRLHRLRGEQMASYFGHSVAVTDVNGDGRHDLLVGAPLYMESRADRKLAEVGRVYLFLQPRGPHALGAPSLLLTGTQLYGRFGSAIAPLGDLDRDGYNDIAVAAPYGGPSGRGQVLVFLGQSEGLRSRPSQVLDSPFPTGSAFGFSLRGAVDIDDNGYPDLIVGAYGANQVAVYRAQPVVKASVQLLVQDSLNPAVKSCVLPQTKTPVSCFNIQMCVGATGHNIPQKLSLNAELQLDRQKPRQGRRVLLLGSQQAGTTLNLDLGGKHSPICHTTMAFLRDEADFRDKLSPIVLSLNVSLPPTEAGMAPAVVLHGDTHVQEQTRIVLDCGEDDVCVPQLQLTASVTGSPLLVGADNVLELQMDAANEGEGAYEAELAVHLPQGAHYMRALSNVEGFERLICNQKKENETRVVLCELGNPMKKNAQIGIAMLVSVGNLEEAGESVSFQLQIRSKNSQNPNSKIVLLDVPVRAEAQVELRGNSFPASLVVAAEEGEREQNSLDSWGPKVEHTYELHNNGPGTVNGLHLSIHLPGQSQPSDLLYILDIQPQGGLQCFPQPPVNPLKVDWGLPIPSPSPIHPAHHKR
T1 sequence (P08514 891-1039 limits assumed): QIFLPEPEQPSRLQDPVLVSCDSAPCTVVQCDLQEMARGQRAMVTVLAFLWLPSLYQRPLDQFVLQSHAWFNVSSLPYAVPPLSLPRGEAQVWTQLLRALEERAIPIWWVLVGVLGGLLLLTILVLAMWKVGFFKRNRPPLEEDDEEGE
T1 sequence (P05106 27-788): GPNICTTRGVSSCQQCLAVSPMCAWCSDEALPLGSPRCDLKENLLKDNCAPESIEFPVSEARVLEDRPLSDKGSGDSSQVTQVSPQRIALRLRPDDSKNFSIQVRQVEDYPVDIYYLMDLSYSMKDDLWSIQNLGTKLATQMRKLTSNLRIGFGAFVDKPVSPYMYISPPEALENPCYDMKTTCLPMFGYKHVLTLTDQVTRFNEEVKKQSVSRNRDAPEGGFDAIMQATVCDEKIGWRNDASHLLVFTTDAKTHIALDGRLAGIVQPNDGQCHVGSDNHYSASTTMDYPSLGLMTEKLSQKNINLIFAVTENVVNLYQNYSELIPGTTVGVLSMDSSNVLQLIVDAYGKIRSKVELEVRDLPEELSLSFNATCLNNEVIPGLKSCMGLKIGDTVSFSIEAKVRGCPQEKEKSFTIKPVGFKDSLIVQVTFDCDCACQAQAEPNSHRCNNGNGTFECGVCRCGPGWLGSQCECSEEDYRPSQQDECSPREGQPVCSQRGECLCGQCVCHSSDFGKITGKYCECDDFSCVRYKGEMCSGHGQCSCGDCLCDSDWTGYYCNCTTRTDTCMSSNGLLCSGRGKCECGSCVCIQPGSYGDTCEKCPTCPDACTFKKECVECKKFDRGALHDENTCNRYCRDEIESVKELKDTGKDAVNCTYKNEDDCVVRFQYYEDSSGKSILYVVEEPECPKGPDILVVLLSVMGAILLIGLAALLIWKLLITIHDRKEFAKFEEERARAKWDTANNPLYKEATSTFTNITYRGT
Description: No. 1 - The ELISA IIb-IIIa Assay
PIIb-IIIa is coated onto microtiter plates. The coated support is then contacted with fibrinogen and with the test material (e.g., compounds of Formula I) and incubated for a sufficient time to permit maximal binding of fibrinogen to the immobilized GPIIb- Ila. Fibrinogen is typically provided at a concentration of about 5-50 nM and the test material can, if desired, be added at a series of dilution. Typical incubations are 2 to 4 hours at 25° C., the time and temperature being interdependent.
After incubation, the solution containing the fibrinogen and test material is removed and the level of binding of fibrinogen measured by quantitating bound fibrinogen to GPIIb-IIIa. Any suitable means of detection may be used, but it is convenient to employ labeled fibrinogen, for example using biotinylated labels. Such methods are well known in the art.
A. Description of Assays—Plate Assays
After purification, the receptors were stored in 0.1% Triton X-100 at 0.1-1.0 mg/ml.
The receptors were coated to the wells of 96-well flat-bottom ELISA plates (Linbro EIA-Plus microtiter plate, Flow Laboratories) after diluting 1:200 with a solution of 20 mM Tris-HCl, 150 mM NaCl, 1 mM CaCl2, pH 7.4, to reduce the Triton X-100 concentration to below its critical micellar concentration and adding an aliquot of 100 ul to each well. The wells were all allowed to incubate overnight at 4° C., and then aspirated to dryness. Additional sites were blocked by the addition of bovine serum albumin (BSA) at 35 mg/ml in the above buffer for two hours at 30° C. to prevent nonspecific binding. The wells were then washed once with binding buffer ([…] Tris-HCl, 100 mM NaCl 2 mM CaCl2, 1 mg/ml BSA).
The corresponding ligands (fibrinogen, von Willebrand Factor, or vitronectin) were conjugated to biotin using commercially available reagents and standard protocols. The labeled ligands were added to the receptor-coated wells at final concentration of 10 nM (100 ul/well) and incubated for 3 hours at 25° C. in the presence or absence of the test samples. After incubation, the wells are aspirated to dryness and bound ligand is quantitated.
Decreased color development is observed in wells incubated with test samples which inhibit binding of ligand to receptor.

[2] = read-out: PRP (ADP-Citrate) IC50

SMILES | IC50 ([1]; read-out: PRP IC50) | IC50 (GPIIb-IIIa) | IC50 [1, 2]
O=C(N[C@@H](CCC(=O)N1CCC2(CC1)CCN(c1ccncc1)CC2)C(=O)O)OCc1ccccc1 [Example 5, 2(S)-2-{[(benzyloxy)carbonyl]amino}-5-oxo-5-[9-(4-pyridyl)-3,9-diazaspiro [5.5]undec-3-yl]pentanoic acid] | 4600 nM | 7 nM | –
O=C(O)COC1CCN(C(=O)N2CCC3(CCN(c4ccncc4)CC3)C2)CC1 [Example 26, 2-((1-((8-(4-pyridyl)-2,8-diazaspiro[4.5]dec-2-yl)carbonyl)-4-piperidyl)oxy)acetic acid] | – | 457 nM | 1000 nM
O=C(O)CN1CCN(C(=O)N2CCC3(CC2)CCN(c2ccncc2)C3)CC1 [Example 41] | 8920 nM | 252 nM | –
O=C(O)CCN1CCC(C(=O)N2CCC3(CC2)CCN(c2ccncc2)C3)CC1 [Example 49, 3-(4-{[2-(4-pyridyl)-2,8-diazaspiro[4.5]dec-8-yl]carbonyl}piperidino) propanoic acid] | 1010 nM | 17 nM | –
Cc1noc(C)c1S(=O)(=O)N[C@@H](CNC(=O)N1CCC2(CC1)CCN(c1ccncc1)CC2)C(=O)O [Example 10, (2S)-2-{[(3,5-dimethyl-4-isoxazolyl)sulfonyl]amino}-3-( {[9-(4-pyridyl)-3,9-diazaspiro [5.5]undec-3-yl]carbonyl}amino)propanoic acid] | 31 nM | 1 nM | –
O=C(O)Cn1ccc2cc(C(=O)N3CCC4(CC3)CCN(c3ccncc3)C4)ccc21 [Example 53, 2-(5-{[2(4-pyridyl)-2,8-diazaspiro[4,5]dec-8-yl]carbonyl}-1H-1-indolyl) acetic acid] | – | 47 nM | 952 nM
O=C(O)CC(=O)NC1CCN(C(=O)N2CCC3(CC2)CCN(c2ccncc2)C3)C1 (stereo not shown) [Example 47, 3-oxo-3-[(1-{[2-(4-pyridyl)-2,8-diazaspiro[4.5]dec-8-yl]carbonyl}-tetrahydro-1H-3-pyrrolyl)amino]propanoic acid] | 5860 nM | 447 nM | –
O=C(O)CC(=O)N1CCC(C(=O)N2CCC3(CC2)CCN(c2ccncc2)CC3)CC1 [Example 12, 3-oxo-3-(4-{[9-(4-pyridyl)-3,9-diazaspiro[5.5]undec-3-yl]carbonyl}piperidino)propanoic acid] | 1770 nM | 39 nM | –
CCCCOC(=O)N[C@@H](CCC(=O)N1CCC2(CCN(c3ccncc3)CC2)C1)C(=O)O [Example 21, (2S)-2-[(butoxycarbonyl)amino]-5-oxo-5-[8-(4-pyridyl)-2,8-diazaspiro [4.5]dec-2-yl]pentanoic acid] | – | 162 nM | 5700 nM
Cc1noc(C)c1S(=O)(=O)N[C@@H](CCC(=O)N1CCC2(CC1)CCN(c1ccncc1)C2)C(=O)O [Example 34, (2S)-2-{[(3,5-dimethyl-4-isoxazolyl)sulfonyl]amino}-5-oxo-5-[2-(4-pyridyl)-2,8-diazaspiro [4.5]dec-8-yl]pentanoic acid] | – | 2 nM | 271 nM
O=C(O)CCCCC(=O)N1CCC2(CC1)CCN(c1ccncc1)CC2 [Example 2, 6-oxo-6-(9-(4-pyridyl)-3,9-diazaspiro[5.5]undec-3-yl)hexanoic acid] | 4500 nM | 258 nM | –
O=C(O)CCCCCC(=O)N1CCC2(CC1)CCN(c1ccncc1)CC2 [Example 3, 7-oxo-7-(9-(4-pyridyl)-3,9-diazaspiro[5.5]undec-3-yl)heptanoic acid] | 4500 nM | 265 nM | –
O=C(O)CCCCCCC(=O)N1CCC2(CCN(c3ccncc3)CC2)C1 [Example 23, 8-oxo-8-(8-(4-pyridyl)-2,8-diazaspiro[4.5]dec-2-yl)octanoic acid] | – | 196 nM | 18700 nM
O=C(O)CCCCCC(=O)N1CCC2(CCN(c3ccncc3)CC2)C1 [Example 24, 7-oxo-7-(8-(4-pyridyl)-2,8-diazaspiro[4.5]dec-2-yl)heptanoic acid] | – | 16 nM | 1300 nM
O=C(O)CCCC(=O)N1CCC2(CC1)CCN(c1ccncc1)CC2 [Example 1, 5-oxo-5-(9-(4-pyridyl)-3,9-diazaspiro[5.5]undec-3-yl)pentanoic acid] | 5100 nM | 238 nM | –
O=C(O)CN1CCN(C(=O)N2CCC3(CCN(c4ccncc4)CC3)C2)CC1=O [Example 27, 2-(2-oxo-4-((8-(4-pyridyl)-2,8-diazaspiro[4.5]dec-2-yl)carbonyl)-4-piperazino) acetic acid] | – | 35 nM | 568 nM
O=C(O)CS(=O)(=O)N1CCC(C(=O)N2CCC3(CC2)CCN(c2ccncc2)C3)CC1 [Example 51, ethyl 2-[(4-{[2-(4-pyridyl)-2,8-diazaspiro[4.5]dec-8-yl]carbonyl}-piperidino)sulfonyl]acetic acid] | – | 94 nM | 938 nM
O=C(O)CC(=O)N1CCCN(C(=O)N2CCC3(CC2)CCN(c2ccncc2)C3)CC1 [Example 43, 3-oxo-3-(4-{[2-(4-pyridyl)-2,8-diazaspiro[4.5]dec-8-yl]carbonyl}-1,4-diazepan-1-yl) propanoic acid] | 697 nM | 25 nM | –
Cc1noc(C)c1S(=O)(=O)N[C@@H](CCC(=O)N1CCC2(CC1)CCN(c1ccncc1)CC2)C(=O)O [Example 8, 2(S)-2-{[(3,5-dimethyl-4-isoxazolyl)sulfonyl]amino}-5-oxo-5-[9-(4-pyridyl)-3,9-diazaspiro [5.5]undec-3-yl]pentanoic acid] | 21 nM | 2 nM | –
O=C(O)CC(=O)N1CCC(C(=O)N2CCC3(CCN(c4ccncc4)CC3)C2)CC1 [Example 19, 3-oxo-3-(4-{[8-(4-pyridyl)-2,8-diazaspiro[4.5]dec-2-yl]carbonyl}piperidino)propanoic acid] | – | 28 nM | 1600 nM
O=C(O)COC1CCN(C(=O)N2CCC3(CC2)CCN(c2ccncc2)C3)CC1 [Example 44] | 3780 nM | 138 nM | –
O=C(N[C@@H](CCC(=O)N1CCC2(CCN(c3ccncc3)CC2)C1)C(=O)O)OCc1ccccc1 [Example 20, (2S)-2-{[(benzyloxy)carbonyl]amino}-5-oxo-5-[8-(4-pyridyl)-2,8-diazaspiro [4.5]dec-2-yl]pentanoic acid] | – | 12 nM | 9100 nM
O=C(O)CCNC(=O)N1CCC2(CC1)CCN(c1ccncc1)C2 [Example 55, 3-({[2-(4-pyridyl)-2,8-diazaspiro[4.5]dec-8-yl]carbonyl}amino)propanoic acid] | – | 28900 nM | 34600 nM
CCCCOC(=O)N[C@@H](CCC(=O)N1CCC2(CC1)CCN(c1ccncc1)CC2)C(=O)O [Example 9, 2(S)-2-[(butoxycarbonyl)amino]-5-oxo-5-[9-(4-pyridyl)-3,9-diazaspiro [5.5]undec-3-yl]pentanoic acid] | 722 nM | 2 nM | –
O=C(O)CN1CCN(C(=O)N2CCC3(CC2)CCN(c2ccncc2)C3)CC1=O [Example 29, 2-(2-oxo-4-((2-(4-pyridyl)-2,8-diazaspiro[4.5]dec-8-yl)carbonyl)piperazino)acetic acid] | – | 122 nM | 2650 nM
O=C(O)CCCCCCC(=O)N1CCC2(CC1)CCN(c1ccncc1)CC2 [Example 4, 8-oxo-8-(9-(4-pyridyl)-3,9-diazaspiro[5.5]undec-3-yl)octanoic acid] | 18000 nM | 1160 nM | –

Source: patent US20030055244A1, “Pyridyl-containing spirocyclic compounds as inhibitors of fibrinogen-dependent platelet aggregation” (priority 1999, published 2003)
